In patent publication US12661345B2, “Compositions for the treatment of hypertension” (The George Institute for Global Health, priority 2017, dated 2026):

Tested on: participants with migraine
Test: Office blood pressure in 12-week double blind randomized 3×3 factorial trial
Type: in vivo, human
Settings: for Diastolic Blood Pressure Mean difference / Systolic Blood Pressure Mean difference / Diastolic Blood Pressure, Change from Baseline, Mean difference / Systolic Blood Pressure, Change from Baseline, Mean difference: interval in brackets
Protocol: There was a 4 week screening period and another 4-week post study drug observational period.
There was a 4-week screening period and another 4-week post study drug observational period.
Group 2 received the low-dose BP lowering combination and simvastatin (i.e., telmisartan 20 mg+amlodipine 2.5 mg+simvastatin). Group 3 received the low-dose BP lowering combination and placebo (i.e., telmisartan 20 mg+amlodipine 2.5 mg+placebo). […] Group 9 received double placebo.
Office BP was measured following the recommendations of the Australian National Heart Foundation. Participants were rested in the seated position for 5 minutes, an appropriate cuff size was selected and 3 measurements of BP were recorded using an Omron HEM907 monitor or equivalent validated automated digital BP monitor. Principles of automated office BP measurements were applied whereby the patient was left alone during BP recording.
All analyses of study outcomes were conducted according to the principle of intention-to-treat. The analyses of continuous outcomes such SBP and LDL-cholesterol at 12 weeks was performed using ANCOVA including the treatment arm and baseline values as a covariate. Additional analyses included interim measurements in a longitudinal model including treatment arm, visit, and treatment by visit interaction as well as the baseline measurement. Within-patient correlations were modelled using generalized estimating equations. A similar approach was applied to binary endpoints with log-binomial regression used in place of linear regression. There were also pre-defined subgroup analyses, baseline BP, baseline LDL, gender and age.

[1] = Randomization (baseline, before treatment)
[2] = Randomization, BP arm versus placebo

Structure (SMILES): CC(C)NCC(O)COc1cccc2ccccc12 (centres unmarked) [Propranolol, propranolol]
- Diastolic Blood Pressure Mean (SD) [1]: 10 85.1 (12.48) mmHg
- Diastolic Blood Pressure Q1 [1]: 75.7 mmHg
- Diastolic Blood Pressure Q2 [1]: 77.7 mmHg
- Diastolic Blood Pressure Q3 [1]: 95.7 mmHg
- Diastolic Blood Pressure min [1]: 73 mmHg
- Systolic Blood Pressure Mean (SD) [1]: 10 130.4 (16.09) mmHg
- Systolic Blood Pressure Q1 [1]: 116.7 mmHg
- Systolic Blood Pressure Q2 [1]: 129.3 mmHg
- Systolic Blood Pressure Q3 [1]: 146.3 mmHg
- Systolic Blood Pressure max [1]: 153 mmHg
- Diastolic Blood Pressure Mean difference [2]: 3.67 (−4.68, 12.02) mmHg
- Systolic Blood Pressure Mean difference [2]: 6.52 (−4.86, 17.91) mmHg
- Diastolic Blood Pressure Mean (SD) (Week 4): 10 75.5 (9.75) mmHg
- Diastolic Blood Pressure Q1 (Week 4): 69.0 mmHg
- Diastolic Blood Pressure Q2 (Week 4): 73.3 mmHg
- Diastolic Blood Pressure Q3 (Week 4): 83.3 mmHg
- Diastolic Blood Pressure max (Week 4): 89 mmHg
- Diastolic Blood Pressure min (Week 4): 62 mmHg
- Diastolic Blood Pressure, Change from Baseline, Mean (SD) (Week 4): 10 −9.6 (5.66)
- Diastolic Blood Pressure, Change from Baseline, Q1 (Week 4): −13.0
- Diastolic Blood Pressure, Change from Baseline, Q2 (Week 4): −10.3
- Diastolic Blood Pressure, Change from Baseline, Q3 (Week 4): −4.3
- Diastolic Blood Pressure, Change from Baseline, max (Week 4): −1
- Diastolic Blood Pressure, Change from Baseline, min (Week 4): −19
- Systolic Blood Pressure Mean (SD) (Week 4): 10 121.3 (14.92) mmHg
- Systolic Blood Pressure Q1 (Week 4): 108.7 mmHg
- Systolic Blood Pressure Q2 (Week 4): 116.8 mmHg
- Systolic Blood Pressure Q3 (Week 4): 135.3 mmHg
- Systolic Blood Pressure max (Week 4): 146 mmHg
- Systolic Blood Pressure, Change from Baseline, Mean (SD) (Week 4): 10 −9.1 (5.63)
- Systolic Blood Pressure, Change from Baseline, Q1 (Week 4): −13.3
- Systolic Blood Pressure, Change from Baseline, Q2 (Week 4): −8.5
- Systolic Blood Pressure, Change from Baseline, Q3 (Week 4): −5.0
- Systolic Blood Pressure, Change from Baseline, max (Week 4): −1
- Systolic Blood Pressure, Change from Baseline, min (Week 4): −18
- Diastolic Blood Pressure Mean difference (Week 4, BP arm versus placebo): −3.53 (−11.29, 4.22) mmHg
- Systolic Blood Pressure Mean difference (Week 4, BP arm versus placebo): −2.60 (−14.65, 9.45) mmHg
- Diastolic Blood Pressure, Change from Baseline, Mean difference (Week 4): −7.53 (−13.19, −1.88)
- Systolic Blood Pressure, Change from Baseline, Mean difference (Week 4): −9.23 (−17.31, −1.16)
- Diastolic Blood Pressure Mean (SD) (Week 8): 10 75.0 (8.82) mmHg
- Diastolic Blood Pressure Q1 (Week 8): 66.3 mmHg
- Diastolic Blood Pressure Q2 (Week 8): 76.5 mmHg
- Diastolic Blood Pressure Q3 (Week 8): 83.3 mmHg
- Diastolic Blood Pressure max (Week 8): 85 mmHg
- Diastolic Blood Pressure min (Week 8): 61 mmHg
- Diastolic Blood Pressure, Change from Baseline, Mean (SD) (Week 8): 10 −10.1 (6.39)
- Diastolic Blood Pressure, Change from Baseline, Q1 (Week 8): −12.7
- Diastolic Blood Pressure, Change from Baseline, Q2 (Week 8): −10.8
- Diastolic Blood Pressure, Change from Baseline, Q3 (Week 8): −7.0
- Diastolic Blood Pressure, Change from Baseline, max (Week 8): 0
- Diastolic Blood Pressure, Change from Baseline, min (Week 8): −22
- Systolic Blood Pressure Mean (SD) (Week 8): 10 118.6 (12.56) mmHg
- Systolic Blood Pressure Q1 (Week 8): 112.3 mmHg
- Systolic Blood Pressure Q2 (Week 8): 119.5 mmHg
- Systolic Blood Pressure Q3 (Week 8): 127.0 mmHg
- Systolic Blood Pressure max (Week 8): 135 mmHg
- Systolic Blood Pressure min (Week 8): 95 mmHg
- Systolic Blood Pressure, Change from Baseline, Mean (SD) (Week 8): 10 −11.8 (11.44)
- Systolic Blood Pressure, Change from Baseline, Q1 (Week 8): −18.0
- Systolic Blood Pressure, Change from Baseline, Q2 (Week 8): −11.8
- Systolic Blood Pressure, Change from Baseline, Q3 (Week 8): −4.3
- Systolic Blood Pressure, Change from Baseline, max (Week 8): 6
- Systolic Blood Pressure, Change from Baseline, min (Week 8): −30
- Diastolic Blood Pressure Mean difference (Week 8, BP arm versus placebo): −3.67 (−10.23, 2.90) mmHg
- Diastolic Blood Pressure, Change from Baseline, Mean difference (Week 8): −7.67 (−12.92, −2.41)
- Systolic Blood Pressure, Change from Baseline, Mean difference (Week 8): −7.30 (−17.13, 2.53)
- Diastolic Blood Pressure, Change from Baseline, Mean (SD) (Week 12): 10 −10.5 (6.44)
- Diastolic Blood Pressure, Change from Baseline, Q1 (Week 12): −16.7
- Diastolic Blood Pressure, Change from Baseline, Q2 (Week 12): −9.3
- Diastolic Blood Pressure, Change from Baseline, Q3 (Week 12): −4.3
- Diastolic Blood Pressure, Change from Baseline, max (Week 12): −3
